Experimental data reported in patent publication US20230414771A1, “PREPARATION AND USE OF IMMUNOSTIMULATORY CONJUGATED COMPLEXES FOR TARGETED DELIVERY AND ACTIVATION” (YAFEI SHANGHAI BIOLOGY MEDICINE SCIENCE & TECHNOLOGY CO., …, priority 2020, published 2023).
Where a SMILES comes first, the peptide text is derived from it. The star is where a group is joined. Doxorubicin(3'-N) = COc1cccc2c1C(=O)c1c(O)c3c(c(O)c1C2=O)C[C@@](O)(C(=O)CO)C[C@@H]3O[C@H]1C[C@H](N*)[C@H](O)[C@H](C)O1; MeOCH2CH2OCH2CO = COCCOCC(=O)*

Assays:
[1] = test system: acidified human breast cancer (MDA-MB435) tumor tissue homogenate; experiment: Activation efficiency of S-C-A linkers in tumor tissue homogenate, HPLC; assay type: biochemical; conditions: C is AAN, 1 mg/ml, homogenate pH 6.0, 37° C.
Method: When C is AAN, the activation of the different S-C-A linkers and the control linker is evaluated in an activation assay. They were dissolved and diluted tenfold using S-C-A conjugates to a concentration of 0.1 mM/ml. The sample compounds were added at a concentration of 1 mg/ml to 100 μg of acidified human breast cancer (MDA—MB435) tumor tissue homogenate (pH 6.0) at 37° C. The enzyme in the tumor tissue homogenate was released and detected by HPLC to compare the efficiency of activation of the linker by the tumor tissue.
The effect of the D-type tripeptide on the activation efficiency was examined in comparison to the native peptide sequence linker cleaved by Legumain, S1 in MI-S is —CH2CH2—CONH—, S2: 2 peg.

M2 macrophages = experiment: Cytotoxicity screening, inhibition rate of M2 macrophages at 10 uM; assay type: cell-based, C57BL/6 mice; conditions: 10 uM drug per well, 3 wells, relative to the drug-free group
Method: After the cell count in Example 13, the cell concentration was adjusted with the culture medium, and the cells were seeded in a 96-well culture plate at […] of cell suspension per well, wherein the seeding concentration of CD8+ T cells was 100000 cells/well, and the seeding concentration of M2 macrophages was 20000 cells/well. The 96-well plate was incubated overnight for 24 hour at 37° C. in a carbon dioxide (5%) incubator. After 24 hours, 100 ul of cell culture solutions containing different concentrations of drugs were added to the 96-well culture plate. At the same time, a control well (0.1% DMSO) with no drug added and only the corresponding drug solvent and a zero-adjusted well (Blank) with only medium and no cells added was set. Each set was prepared in triplicate and the plates were incubated for 48 hours at 37° C. in a 5% CO2 incubator. After 48 hours, 20 μl MTT (5 mg/ml) was added to each well and the incubation was continued for 4 hours. The culture medium was then gently aspirated, and 150 μl DMSO was added to each well as solvent for dissolution. After dissolution, the absorbance at 490 nm was measured with a microplate reader.
Cytotoxicity screening experiments for some compounds were performed for M2 macrophage inhibition as in embodiment 14.

HT1080 tumors = experiment: HT1080 tumor model in nude mice, 36 umol/kg; assay type: in vivo
Method: • 1. Animals: nude mice aged 6-8 weeks, all female. • 2. Preparation of tumor models • 1) HT1080 cells were purchased from ATCC and characterized according to the instructions provided. […] Randomization was performed when the tumor size reached 100 mm^3. Treatment was then initiated, and the day of initiation of treatment was counted as Day 1. • 3) Treatment process
According to the clinical application of the corresponding compound, the drug was administered intravenously (IV). The compounds indicated in the table were administered at a low dose and at the same dose of 36 umol/kg.

[2] = test system: Human hepatoma HepG2 cells; experiment: Human liver cancer HepG2 tumors in nude mice; assay type: in vivo; conditions: for Tumor volume (mm^3) Day 28: 54 umol/kg IV once a week for 4 weeks; for inhibition in vivo at 54 µmol/kg: Mus musculus, HepG2, iv, 672 h, read-out: Tumor inhibition rate (%) Day 28
Method: • 1. Animals: nude mice aged 6-8 weeks, all female. • 2. Preparation of tumor models
Human hepatoma HepG2 cells were purchased from ATCC and identified according to the instructions provided. […] Randomization was performed when the tumor size reached 100 mm^3.
Treatment was then initiated, and the day of initiation of treatment was counted as Day 1. • 3) Treatment process
According to the clinical application of the corresponding compound, the drug was administered intravenously (IV). The compound and the control drug were administered at a dose of 54 umol/kg, and DOX could only be administered at a dose of 18 umol/kg due to toxicity limitations.

[3] = Water solubility test (observation and HPLC); assay type: physicochemical; conditions: thermodynamic from solid
Method: The compounds prepared in accordance with the examples of the disclosure and the reference compounds C1, C2, C3 and C4 were lyophilized (−70° C.).

CT26 tumor cells = experiment: MTT assay of N-CBP and HSA-QHL-095-N-CBP; assay type: cell-based; conditions: 48 hours, CT26 tumor cells and CD8+ T cells seeded
Method: After counting the separated and cultured cells, adjust the cell concentration with culture medium, inoculate the cells on a 96-well culture plate with 100 μl cell suspension per well, 100000 cells/well of CD8+ T cells and 20000 cells/well of CT26 tumor cells. The 96-well plate was incubated overnight for 24 hour at 37° C. in a carbon dioxide (5%) incubator. After 24 hours, 100 ul of cell culture medium containing different concentrations of drugs was added to the 96-well culture plate, and control wells (0.1% DMSO) without drugs but with corresponding drug solvent were set, and blank wells (Blank) with medium but without cells were set. Each set was prepared in triplicate and the plates were incubated for 48 hours at 37° C. in a 5% CO2 incubator. After 48 hours, 20 μl MTT (5 mg/ml) was added to each well and the incubation was continued for 4 hours. The culture medium was then gently aspirated, and 150 μl DMSO was added to each well as solvent for dissolution. After dissolution, the absorbance at 490 nm was measured with a microplate reader.

For `COc1cccc2c1C(=O)c1c(O)c3c(c(O)c1C2=O)C[C@@](O)(C(=O)CO)C[C@@H]3O[C@H]1C[C@H](NC(=O)[C@H](CC(C)C)NC(=O)[C@H](CC(N)=O)NC(=O)[C@H](C)NC(=O)[C@H](C)N)[C@H](O)[C@H](C)O1` [AANL-DOX, reference compound] (H-AANL-{Doxorubicin(3'-N)}), the “Activation efficiency (%)” value ([1]; Table 2-1) was 42.1%, the “Inhibition rate of M2 macrophages” value (M2 macrophages) was 16.9% and the “Tumor volume (mm^3) Day 28” value (HT1080 tumors; 36 umol/kg IV once a week for 3 weeks) was 318.5 ± 197.6 mm^3. For the same compound, the inhibition in vivo at 36 µmol/kg (HT1080 tumors; Mus musculus, HT-1080, iv, 672 h, read-out: Tumor inhibition rate Day 28) was 81.8%, the “Tumor volume (mm^3) Day 28” value [2] was 1564 ± 689.4 mm^3 and the inhibition in vivo at 54 µmol/kg [2] was 46%.
For `COCCOCC(=O)N[C@@H](C)C(=O)N[C@@H](C)C(=O)N[C@@H](CC(N)=O)C(=O)N[C@@H](CC(C)C)C(=O)N[C@H]1C[C@H](O[C@H]2C[C@](O)(C(=O)CO)Cc3c(O)c4c(c(O)c32)C(=O)c2c(OC)cccc2C4=O)O[C@@H](C)[C@H]1O` [C4 PEG-AANL-DOX, reference compound] (MeOCH2CH2OCH2CO-AANL-{Doxorubicin(3'-N)}), the “Activation efficiency (%)” value ([1]; Table 2-3) was 66.9%, the “Inhibition rate of M2 macrophages” value (M2 macrophages) was 10.5% and the solubility [3] was less than 5000 µg/mL. For the same compound, the “Tumor volume (mm^3) Day 28” value [2] was 848.7 ± 347.5 mm^3 and the inhibition in vivo at 54 µmol/kg [2] was 70.7%.
For `[NH3+][Pt-2]1([NH3+])[O]C(=O)C2(CNC2)C(=O)[O]1` [N-CBP], the “in vitro cytotoxicity (FIGS. 13 and 14)” value (CT26 tumor cells) was “stronger than carboplatin and oxaliplatin and weaker than cisplatin”.
